From patent publication US4062733A, “Radio-assay of oestrogen” (The Radiochemical Centre Limited, priority 1975, dated 1977)

What was measured:
Type in all cases: binding
[1] = system: antiserum produced against oestriol conjugated to albumin (antiserum A); assay: radioimmunoassay of oestriol, standard curve, antiserum A
Method: (§1) In the assay, an accurately known volume of the biological fluid is incubated with a standard amount of the radio-iodinated oestrogen derivative and a standard amont of the specific reagent, e.g. antibody, insufficient to bind all the oestrogens present. The radio-iodinated oestrogen derivatives and the specific reagent may conveniently be provided in buffered solution containing horse serum. […] The radioactive concentration of the precipitate and/or the supernatant liquid is then counted by standard techniques. If an absolute determination is required, a calibration curve may be generated in the usual way by means of oestrogen, e.g. oestriol, solutions of known concentrations, conveniently also in horse serum.
(§2) Chloramine-T (0.5 mg in 100 μl water) is added to a stirred mixture of oestriol (50 μg in 400 ul ethanol) and Na^125 I (10mCi in 100 μl dilute NaOH), and the mixture is stirred for a further 5 minutes. Sodium metabisulphite (1.2 mg in 500 μl water) is then added and the mixture stirred for 5 minutes before 1 ml of 0.1 M HCl is added. The mixture is then vigorously stirred with 1 ml of chloroform. The aqueous layer is separated from the organic solvent, and the aqueous layer is re-extracted with a further 1 ml of chloroform. The pooled chloroform extracts are evaporated to dryness under a stream of nitrogen, and the residue is redissolved in 50 μl of ethanol. The ethanol solution of ^125 I -- labelled oestriol derivative is purified by chromatography and the product is diluted in phosphate buffer containing horse serum (10%), sodium azide (1 mg/ml) and gelatine (1 mg/ml) prior to use in the radioimmunoassay
(§3) Samples of 50 μl of standard solutions of oestriol in horse serum, or of the unknown human serum samples, are dispensed into plastic tubes. To each tube is added 200 μl of a solution of enzymes (extracted from the snail Helix pomatia) in sodium acetate buffer, pH 5, and the contents of the tubes are briefly mixed. The tubes are then stoppered and incubated in a water bath at 37° C for 2 hours. After the incubation, replicate 50 μl samples are taken from the hydrolysed serum and dispensed into plastic tubes. to each tube is added 200 μl of phosphate buffer containing 10% horse serum, sodium azide (1 mg/ml) gelatine (1 mg/ml), and the oestriol derivative labelled with ^125 I as described above (approximately 0.3 μCi/ml). Volumes of 200 μl of the phosphate buffer containing horse serum, sodium azide and gelatine, and containing a dilution of antiserum produced against oestriol conjugated to albumin are added to each tube, and the contents of the tubes are then mixed. The tubes are left at ambient temperature for 30 minutes, and 500 μl of an ammoniumm sulphate solution (5.4 g in 10 ml water) is then added to each tube. After mixing, the tubes are centrifuged, the supernatant liquid is removed by aspiration and the precipitates in the tubes are counted in a γ-counter.

[2] = system: antiserum produced against oestriol conjugated to albumin (antiserum B); assay: radioimmunoassay of oestriol, standard curve, antiserum B
Method: as §1, §2, §3

[3] = system: antiserum produced by immunising with oestrone-6-carbomethoxyoximethyroglobulin (Miles-Yeda); assay: radioimmunoassay of oestrone, standard curve, Miles-Yeda antiserum; conditions: Miles-Yeda antiserum as supplied, label age 23 days
[4] = system: antiserum produced by immunising with an oestrone derivative coupled in the 6 position (The John Radcliffe Hospital, Oxford); assay: radioimmunoassay of oestrone, standard curve, John Radcliffe Hospital antiserum; conditions: J. Radcliffe Hosp. antiserum 1/32,000, label age 30 days
[5] = system: antiserum produced by immunising with oestradiol-6-carbomethoxyoxime-BSA (Miles-Yeda); assay: radioimmunoassay of oestradiol, standard curve, Miles-Yeda antiserum; conditions: Miles-Yeda antiserum as supplied, label age 23 days
[6] = system: antiserum produced by immunising with an oestradiol derivative coupled in the 6 position (The John Radcliffe Hospital, Oxford); assay: radioimmunoassay of oestradiol, standard curve, John Radcliffe Hospital antiserum
[7] = system: antiserum produced by immunising with oestriol-6-carbomethoxyoxime-BSA (antiserum A); assay: radioimmunoassay of oestetrol, standard curve, antiserum A; conditions: antiserum A 1/100, label age 7 days
[8] = system: antiserum produced by immunising with oestriol-6-carbomethoxyoxime-BSA (antiserum B); assay: radioimmunoassay of oestetrol, standard curve, antiserum B; conditions: antiserum B 1/100, label age 7 days
[9] = J. Radcliffe antiserum 1/640, label age 31 days
[10] = J. Radcliffe antiserum 1/3200, label age 30 days

C[C@]12CC[C@@H]3c4ccc(O)cc4CC[C@H]3[C@@H]1C[C@@H](O)[C@@H]2O [E3, Oestriol]
% Bound, 50 ng E3 ([1]; 50 ng E3): 57.2% | % Bound, 100 ng E3 ([1]; 100 ng E3): 47.3% | % Bound, 200 ng E3 ([1]; 200 ng E3): 32.6% | % Bound, 350 ng E3 ([1]; 350 ng E3): 23.0% | % Bound, 500 ng E3 ([1]; 500 ng E3): 17.5% | % Bound, 50 ng E3 ([2]; 50 ng E3): 55.2% | % Bound, 100 ng E3 ([2]; 100 ng E3): 47.3% | % Bound, 200 ng E3 ([2]; 200 ng E3): 33.0% | % Bound, 350 ng E3 ([2]; 350 ng E3): 21.4% | % Bound, 500 ng E3 ([2]; 500 ng E3): 17.3%

C[C@]12CC[C@@H]3c4ccc(O)cc4CC[C@H]3[C@@H]1CCC2=O [E1, oestrone]
% Bound, 1ng oestrone [3]: 15.4% | % Bound, 1ng oestrone [4]: 11.2%

C[C@]12CC[C@@H]3c4ccc(O)cc4CC[C@H]3[C@@H]1CC[C@@H]2O [E2, oestradiol]
% Bound, 1ng E2 [5]: 4.0% | % Bound, 1ng E2 [6, 9]: 32.7% | % Bound, 2ng E2 [6, 9]: 13.1% | % Bound, 1ng E2 [6, 10]: 3.0% | % Bound, 2ng E2 [6, 10]: 0.5%

C[C@]12CC[C@@H]3c4ccc(O)cc4CC[C@H]3[C@@H]1[C@@H](O)[C@@H](O)[C@@H]2O [E4, oestetrol]
% Binding in presence of 20ng E4 [7]: 11.0% | % Binding in presence of 20ng E4 [8]: 8.1%
